Columns and labels:
[1] = tested on: trypsin; experiment: Inhibition of trypsin-induced cleavage of fluorescent casein, EnzChek protease assay (cations and salt forms, Examples 1 and 2); type: biochemical
Experimental: The inhibition of trypsin-induced cleavage of a fluorescent casein peptide was measured using the EnzChek™ protease assay kit, following manufacturer's instructions (EnzChek™ Protease Assay Kits Product Information, Revised; Molecular Probes, Eugene Oreg.). Briefly, test materials at different concentrations were prepared in 1×phosphate buffered saline (PBS, pH 7.4). Trypsin working solution (Sigma, St. Louis, Mo., unit/mL) was prepared in digestion buffer provided in the assay kit. Stock solution of BODIPY FL casein (trypsin substrate, mg/mL) was prepared by adding 0.2 mL to the substrate vials (provided in kit), and the final substrate working solution (10 microgram/mL) was prepared by dilution in digestion buffer (pH 7.8). […] Each experiment was performed in three replicates.

[2] = target: T1, trypsin (Bos taurus, UniProt P00760); details: low concentrations, around 0.001 M; cited from earlier work
T1 sequence (P00760 24-246): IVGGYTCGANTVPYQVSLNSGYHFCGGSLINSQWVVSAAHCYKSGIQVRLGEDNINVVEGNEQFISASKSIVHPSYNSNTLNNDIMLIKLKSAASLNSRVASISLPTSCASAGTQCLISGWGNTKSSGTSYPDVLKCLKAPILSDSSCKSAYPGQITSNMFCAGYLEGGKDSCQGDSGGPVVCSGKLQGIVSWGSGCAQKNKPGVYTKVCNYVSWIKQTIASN

[3] = tested on: trypsin; experiment: EnzChek trypsin inhibition assay, mixtures of talc with divalent cation salts (Example 3); type: biochemical; details: for With Talc trypsin inhibition activities (%): all tested materials at 0.1% (g/mL); for Hypothetically calculated additive value of salt and Talc: Table 4
Experimental: The objective of the following experiment was to determine whether and to what extent adding a divalent cation to talc inhibited trypsin activity in an in vitro assay. The inhibition of trypsin-induced cleavage of a fluorescent casein peptide was measured using the EnzChek™ protease assay kit, following manufacturer's instructions (EnzChek™ Protease Assay Kits Product Information, Revised; Molecular Probes, Eugene Oreg.). […] Trypsin working solution (Sigma, St. Louis, Mo., unit/mL) was prepared in digestion buffer provided in the assay kit. Stock solution of BODIPY FL casein (trypsin substrate, mg/mL) was prepared by adding 0.2 mL to the substrate vials (provided in kit), and the final substrate working solution (10 microgram/mL) was prepared by dilution in digestion buffer (pH 7.8). Following incubation of the trypsin, with or without the test materials, with the BODIPY fluorescent casein substrate, at room temperature for one hour, fluorescence was measured (excitation 485 nm /emission 530 nm) using a SpectraMax microtiter plate reader (Molecular Devices Corporation, Sunnyvale, Calif.) and Softmax Pro software (Molecular Devices Corporation). Each experiment was performed in three replicates.

[4] = tested on: trypsin; experiment: EnzChek trypsin inhibition assay, zinc oxide/acid mixtures and zinc oxide containing formulations (Example 4); type: biochemical; details: for % trypsin inhibitory activity: Table 5
Experimental: The objective of the following experiment was to determine whether and to what extent adding an acid to a formulation containing zinc oxide had on inhibition of trypsin activity in an in vitro assay. The inhibition of trypsin-induced cleavage of a fluorescent casein peptide was measured using the EnzChek™ protease assay kit, following manufacturer's instructions (EnzChek™ Protease Assay Kits Product Information, Revised; Molecular Probes, Eugene Oreg.). Briefly, mixtures of zinc oxide and acid at different concentrations were prepared in 1×PBS (pH 7.4) and their pH was recorded as listed in the Tables 5-8. Trypsin working solution (Sigma, St. Louis, Mo., unit/mL) was prepared in digestion buffer provided in the assay kit. Stock solution of BODIPY FL casein (trypsin substrate, mg/mL) was prepared by adding 0.2 mL to the substrate vials (provided in kit), and the final substrate working solution (10 microgram/mL) was prepared by dilution in digestion buffer (pH 7.8). Following incubation of the trypsin, with or without the test materials (50 μl), with the BODIPY fluorescent casein substrate, at room temperature for one hour, fluorescence was measured (excitation 485 nm/emission 530 nm) using a SpectraMax microtiter plate reader (Molecular Devices Corporation, Sunnyvale, Calif.) and Softmax Pro software (Molecular Devices Corporation). Each experiment was performed in three replicates.
For preparations, samples were diluted in 1×PBS at 1:10 ratio and subjected to centrifugation at 13,200 rpm for 1 min using Eppendorf Centrifuge (Model 5415D, Eppendorf AG, Hamburg, Germany) to remove the solid formulation ingredients. The supernatants (50 μl) were used for trypsin inhibitory activity analyses as described above. For preparations, samples were diluted in 10, or 20 or 40% ethanol and subjected to centrifugation at 13,200 rpm for 1 min using Eppendorf Centrifuge (Model 5415D, Eppendorf AG, Hamburg, Germany) to remove the solid formulation ingredients. The supernatants (50 μl) were used for trypsin inhibition assay. Possible effects of ethanol solution (10, 20 or 40% ethanol) on trypsin inhibition activity were tested in the same study and found no significant impact.

Compound: [Cl-].[Li+] [Lithium chloride, reference compound]
- % trypsin inhibitory activity ([1]; Table 1, 0.01% (g/mL)): 8.71%
- % trypsin inhibitory activity ([1]; Table 1, 0.10% (g/mL)): 7.56%
- % trypsin inhibitory activity ([1]; Table 1, 1% (g/mL)): −0.56%

Compound: [Hg+2] [Hg++]
- inhibition of the esterase activity of trypsin [2]: inhibited

Compound: CC(O)C(=O)[O-].CC(O)C(=O)[O-].[Zn+2] (stereo not drawn) [Zinc lactate]
- % trypsin inhibitory activity ([1]; Table 2, 0.01% weight (g/mL)): 23.01%
- % trypsin inhibitory activity ([1]; Table 2, 0.10% weight (g/mL)): 36.36%
- % trypsin inhibitory activity ([1]; Table 2, 1% weight (g/mL)): 87.95%

Compound: O.O.O.O.[Cl][Fe][Cl] [Iron (II) chloride tetrahydrate]
- % trypsin inhibitory activity ([1]; Table 1, 0.01% (g/mL)): −3.24%
- % trypsin inhibitory activity ([1]; Table 1, 0.10% (g/mL)): 64.84%
- % trypsin inhibitory activity ([1]; Table 1, 1% (g/mL)): 112.23%
- % synergistic activity relative to hypothetic additive value ([3]; Table 3, 0.1% (g/mL)): −12.35%
- With Talc trypsin inhibition activities (%) ([3]; Table 3): 64.53%

Compound: O.O.[Cl][Cu][Cl] [(II) chloride dihydrate]
- % trypsin inhibitory activity ([1]; Table 1, 0.01% (g/mL)): 64.98%
- % trypsin inhibitory activity ([1]; Table 1, 0.10% (g/mL)): 99.34%
- % trypsin inhibitory activity ([1]; Table 1, 1% (g/mL)): 108.34%

Compound: [Cl-].[Cl-].[Mg+2] [Magnesium chloride]
- With Talc trypsin inhibition activities (%) ([3]; Table 3): 20.05%
- Hypothetically calculated additive value of salt and Talc ([3]; 0.1% MgCl2, 1% Talc): 12.44%
- Hypothetically calculated additive value of salt and Talc ([3]; 0.5% MgCl2, 1% Talc): 22.93%
- Hypothetically calculated additive value of salt and Talc ([3]; 1% MgCl2, 1% Talc): 25.55%
- trypsin inhibitory activity (in words) ([3]; talc and magnesium chloride alone or combined): moderate to low levels

Compound: [Ca+2].[Cl-].[Cl-] [Calcium chloride]
- % synergistic activity relative to hypothetic additive value ([3]; Table 3, 0.1% (g/mL)): −0.26%
- With Talc trypsin inhibition activities (%) ([3]; Table 3): 26.43%

Compound: CC(=O)O [acetic acid]
- % trypsin inhibitory activity ([4]; no ZnO, 0.01% acetic acid, pH 6.84): −11.18 +/− 2.61%
- % trypsin inhibitory activity ([4]; no ZnO, 0.05% acetic acid, pH 4.75): 25.81 +/− 2.13%

Compound: Zinc gluconate
- % trypsin inhibitory activity ([1]; Table 2, 0.01% weight (g/mL)): 25.33%
- % trypsin inhibitory activity ([1]; Table 2, 0.10% weight (g/mL)): 40.93%
- % trypsin inhibitory activity ([1]; Table 2, 1% weight (g/mL)): 85.52%

Compound: O=[N+]([O-])[O-].[Ag+] [Silver nitrate, reference compound]
- % trypsin inhibitory activity ([1]; Table 1, 0.01% (g/mL)): −2.43%
- % trypsin inhibitory activity ([1]; Table 1, 0.10% (g/mL)): 2.91%
- % trypsin inhibitory activity ([1]; Table 1, 1% (g/mL)): 5.37%

Compound: [Cl-].[Cl-].[Sr+2] [Strontium chloride]
- % trypsin inhibitory activity ([1]; Table 1, 0.01% (g/mL)): 6.51%
- % trypsin inhibitory activity ([1]; Table 1, 0.10% (g/mL)): 11.78%
- % trypsin inhibitory activity ([1]; Table 1, 1% (g/mL)): 47.05%

Compound: CC(=O)[O-].CC(=O)[O-].[Zn+2] [Zinc acetate dihydrate]
- % synergistic activity relative to hypothetic additive value ([3]; Table 3, 0.1% (g/mL)): −15.70%
- With Talc trypsin inhibition activities (%) ([3]; Table 3): 60.18%

Compound: [Ag+] [Ag+]
- inhibition of the esterase activity of trypsin [2]: inhibited

Compound: [Cu+2] [Cu++]
- inhibition of the esterase activity of trypsin [2]: inhibited

Compound: [Cl-].[Na+] [Sodium chloride, reference compound]
- % trypsin inhibitory activity ([1]; Table 1, 0.01% (g/mL)): −7.57%
- % trypsin inhibitory activity ([1]; Table 1, 0.10% (g/mL)): −4.15%
- % trypsin inhibitory activity ([1]; Table 1, 1% (g/mL)): 10.88%

Compound: CC(=O)[O-].CC(=O)[O-].O.[Ca+2] [Calcium acetate monohydrate]
- % synergistic activity relative to hypothetic additive value ([3]; Table 3, 0.1% (g/mL)): 3.10%
- With Talc trypsin inhibition activities (%) ([3]; Table 3): 24.6%

Compound: [Cl-].[Cl-].[Zn+2] [Zinc chloride]
- % trypsin inhibitory activity ([1]; Table 1, 0.01% (g/mL)): 42.99%
- % trypsin inhibitory activity ([1]; Table 1, 0.10% (g/mL)): 88.51%
- % trypsin inhibitory activity ([1]; Table 1, 1% (g/mL)): 105.87%
- % trypsin inhibitory activity ([1]; Table 2, 0.01% weight (g/mL)): 41.25%
- % trypsin inhibitory activity ([1]; Table 2, 0.10% weight (g/mL)): 87.69%
- % trypsin inhibitory activity ([1]; Table 2, 1% weight (g/mL)): 98.75%
- % synergistic activity relative to hypothetic additive value ([3]; Table 3, 0.1% (g/mL)): −13.01%
- With Talc trypsin inhibition activities (%) ([3]; Table 3): 77.96%

Compound: CC(=O)[O-].CC(=O)[O-].O.O.O.O.[Mg+2] [Magnesium acetate tetrahydrate]
- % trypsin inhibitory activity ([1]; Table 2, 0.10% weight (g/mL)): −3.09%
- Salt alone trypsin inhibition activities (%) ([3]; Table 3, 0.1% (g/mL)): 0.83%
- With Talc trypsin inhibition activities (%) ([3]; Table 3): 17.83%

Compound: [O]=[Zn] [ZnO, zinc oxide]
- % trypsin inhibitory activity ([4]; 0.1% ZnO with 0.01% acetic acid, pH 7.28): 1.85 +/− 1.34%
- % trypsin inhibitory activity ([4]; 0.1% ZnO with 0.05% acetic acid, pH 6.03): 49.16 +/− 1.43%
- % trypsin inhibitory activity ([4]; 0.1% ZnO, no acetic acid, pH 7.61): −2.6 +/− 2.76%
- % trypsin inhibitory activity ([4]; 1% ZnO with 0.01% acetic acid, pH 7.85): 15.82 +/− 1.68%
- % trypsin inhibitory activity ([4]; 1% ZnO with 0.05% acetic acid, pH 6.08): 58.19 +/− 0.73%
- % trypsin inhibitory activity ([4]; 1% ZnO, no acetic acid, pH 8.07): 5.40 +/− 1.24%
- trypsin inhibitory activity (in words) ([4]; conclusion from Tables 5-8): minimal protease activity
